Source: publication PMC3336786 (The FASEB Journal, 2012)
Residue numbers refer to the chain shown, from its start.

Experiments:
[1] = target: T1, RDLA2'V (Drosophila melanogaster, UniProt P25123, A301V); experiment: cell-based; assay type: cell-based
T1 sequence (P25123 45-606 A301V): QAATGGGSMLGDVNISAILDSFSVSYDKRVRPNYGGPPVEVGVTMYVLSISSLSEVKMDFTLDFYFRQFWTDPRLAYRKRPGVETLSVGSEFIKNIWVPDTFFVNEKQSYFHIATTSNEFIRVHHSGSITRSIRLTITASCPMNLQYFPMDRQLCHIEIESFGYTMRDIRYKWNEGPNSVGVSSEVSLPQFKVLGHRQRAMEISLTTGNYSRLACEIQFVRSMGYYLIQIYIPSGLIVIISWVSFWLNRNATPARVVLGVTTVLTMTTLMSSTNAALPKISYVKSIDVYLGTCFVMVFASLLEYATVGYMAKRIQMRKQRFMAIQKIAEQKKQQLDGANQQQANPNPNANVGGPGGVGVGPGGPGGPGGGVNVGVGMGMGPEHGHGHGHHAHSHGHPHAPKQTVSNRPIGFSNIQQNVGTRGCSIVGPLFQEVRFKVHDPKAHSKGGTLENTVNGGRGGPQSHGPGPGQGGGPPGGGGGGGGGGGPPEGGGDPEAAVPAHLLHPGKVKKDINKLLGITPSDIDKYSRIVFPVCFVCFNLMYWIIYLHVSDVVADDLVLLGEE

[2] = target: T2, RDLT6'V (Drosophila melanogaster, UniProt P25123, T305V); experiment: Two-electrode voltage clamp of RDLT6'V mutant receptors in Xenopus oocytes; assay type: cell-based
T2 sequence (P25123 45-606 T305V): T1 sequence (P25123 45-606 A301V) with V257A, T261V

SMILES | IC50 [1] [µM] | IC50 [2] [µM]
CC(C)(C)[C@]1(O)CC2OC(=O)CC23C(=O)OC2OC(=O)[C@H](O)C231 (stereo partly shown) [BB, bilobalide] | 224 | > 1000
C[C@@H]1C(=O)O[C@H]2C[C@@]34[C@H]5C[C@@H](C(C)(C)C)[C@]36[C@@H](OC(=O)[C@@H]6O)O[C@@]4(C(=O)O5)[C@]21O [GA, ginkgolide A] | 360 | > 1000
